From US9518240B2, “Process for the treatment of liquefied hydrocarbons using 3-(piperazine-1-YL)propane-1,2-diol compounds” (Dow Global Technologies LLC, priority 2012, dated 2016) come the findings set out here.

For data set [1] the following is noted: heptane 10 g, toluene 0.1 g (internal standard), amine 2.5 g; mixed at 20° C. for 1 hour, decanted 15 minutes; average of three injections.
Method: A solution of heptane (10 g), toluene (0.1 g) and the tested amine (2.5 g) are mixed at 20° C. for 1 hour. The mixture is decanted for 15 minutes and the neat heptane phase is analyzed by gas chromatography using toluene as internal standard.
Data set [2] is described as follows: pKa by automated Mettler Toledo titration. To be noted: water (50 weight % aqueous amine solution).

Molecules are shown by their SMILES.

For orientation: pKa means the pH at which an ionisable group is half protonated. Lower therefore signals a stronger acid or weaker base. `OCC(O)CN1CCNCC1` (stereo not drawn) [PPD, 3-(piperazine-1-YL)propane-1,2-diol]: in data set [1], the “area counts (averaged GC peak area of tested amine in neat heptane phase)” value is reported as 132 area counts. For the same molecule, in data set [2], the pKa was 9.5.
`C1CNCCN1` [Piperazine]: in data set [1], the “area counts (averaged GC peak area of tested amine in neat heptane phase)” value is recorded as 13748 area counts.
